Results on 5 compounds are retold here after patent US4153727A, “Pharmaceutical compositions of a prostaglandin compound for rectal use in treating asthma” (priority 1977, dated 1979).

The structures appear in SMILES notation. Where only a bound is given, the exact number is not on record here.

Usually ED50 stands for the midpoint of the dose-response relation.

The subject of data set [1] is histamine. The data set can be described thus: antiasthmatic effect, aerosol: protection against histamine-induced sneezing. The format is in vivo. The note with it: aerosol 15 sec; histamine aerosol 0.1%; guinea-pigs. The protocol: (§1) Guinea-pigs were placed in a chamber and sprayed for 10 sec. with an aerosol of histamine solution (0.1%) and onset of sneezing was recorded. Animals that sneezed within 70-100 sec. were selected as controls. These animals were sprayed for 15 sec. with an aerosol of the test compounds. After 45 sec., the animals were sprayed with histamine and observed for 3 min.

The subject of data set [2] is histamine. The data set can be described thus: antiasthmatic effect, oral: protection against histamine-induced sneezing. The format is in vivo. To be noted: Cavia porcellus, 0.5 h, 30 min before histamine spray, guinea-pigs. The protocol: as §1
Guinea-pigs were sprayed for 10 sec with histamine 30 min after oral administration of the test compounds and observed for 3 min. The percent of amimals protected was determined.

A short description of data set [3]: diarrhea-producing effect, oral. To be noted: guinea pig, in vivo, guinea-pigs; for TD50: observed at 2-5 hrs and next morning, read-out: (A) Diarrhea-producing effect (b) ED50; for selectivity ratio: read-out: b/a (diarrhea-producing ED50 / oral antiasthmatic ED50). As to the method:
Ii. diarrhea-producing Effect
Test compounds were administered orally to guinea-pigs. The appearance of diarrhea (loose or watery feces) at every 2 hrs, 3 hrs, 4 hrs and 5 hrs period and next morning were noted.

Data set [4] has as its system hystamine. The data set can be described thus: Experiment 1: bronchodilator activity by hystamine spray method, rectal vs oral. The format is in vivo, male guinea pigs. The note with it: 30 min; for Bronchodilator activity, effective / animals tested: oral (control). As to the method: A suppository prepared using the compound of formula I and the oily base or water-soluble base was applied by rectal administration (this invention) to male guinea pigs fasted for 24 hours, each weighing about 550 g. On the other hand, a solution of the compound of formula I in physiological saline solution was applied by oral administration to guinea pigs under the same condition as above for control. After 30 minutes from the administration, the bronchodilator activity of the medicament was determined by a hystamine spray method.

Data set [5] relates to respiratory tract contraction induced by hystamine. The data set can be described thus: 50% inhibition of respiratory tract contraction induced by hystamine, oral vs intravenous. The format is in vivo. To be noted: 50% inhibition of hystamine-induced respiratory tract contraction.
The nature of data set [6]: rectal administration: absorption, antitussive effect, diarrhea. The format is in vivo.
Data set [7] in a line: stability as inhalant (aerosol). To be noted: used as an inhalant (aerosol). The format is physicochemical.
Data set [8] concerns histamine. To be noted: earlier patents; cited from earlier work.
The test system of data set [9] is histamine. The note with it: earlier patents; cited from earlier work. This is another data set of the same source.
Data set [10] relates to bronchoconstriction induced by intravenous injection of histamine. The data set can be described thus: effect on air-way resistance (Konzett and Rossler), intraduodenal administration. The format is in vivo, guinea-pig. The note with it: Cavia porcellus, 0.5 h, 30 min before i.v. histamine 3 μg/kg, anesthetized guinea-pigs, read-out: (B) Effect on air-way resistance ED50. The protocol: Iii. effect on Air-way Resistance
The air-way resistance of the guinea-pig lung was determined by the method of Konzett and Rossler (Arch. exp. Path. Pharmak., 195, 71-74(1940)). The bronchodilator activity of prostaglandins were expressed in terms of protective effect against bronchoconstriction induced by intravenous injection of histamine (3 μg/kg). Histamine was injected 30 min after intraduodenal administration of test compound to urethane anesthetized and artificially ventilated guinea-pigs.

Take `CCCC[C@H](C)[C@H](O)/C=C/[C@H]1[C@H](O)CC(=O)[C@@H]1C/C=C\CCCC(=O)O` [16(S)-methyl-PGE2, 11α, 15(S)-dihydroxy-16(S)-methyl-9-oxo-5(cis)-13(trans)prostadienoic acid]: in [1], the “Antiasthmatic effect, Aerosol ED50” value worked out at 0.009 µg/mL. In data set [2], this compound gave an ED50 of 0.025 mg/kg. Moreover, in data set [3], the TD50 is 0.1 mg/kg and the selectivity ratio came out at 4.

As to `CCCC[C@@H](C)[C@H](O)/C=C/[C@H]1[C@H](O)CC(=O)[C@@H]1C/C=C\CCCC(=O)O` [16(R)-methyl-PGE2, 11α,15(S)-dihydroxy-16(R)-methyl-9-oxo-5(cis)-13(trans)prostadienoic acid], in data set [1], the “Antiasthmatic effect, Aerosol ED50” value was 0.011 µg/mL. The same compound had an ED50 in data set [2] of 0.0175 mg/kg. Further, in [3], the TD50 is 0.025 mg/kg and the selectivity ratio stood at 1.43.

`COCCCC[C@H](C)[C@H](O)/C=C/[C@H]1[C@H](O)CC(=O)[C@@H]1C/C=C\CCCC(=O)O` [compound of formula I, 11α,15(S)-dihydroxy-20-methoxy-16(S)-methyl-9-oxo-5(cis),13(trans)-prostadienoic acid] showed an ED50 in data set [2] of 0.71 mg/kg. Moreover, the TD50 in data set [3] came out at 0.14 mg/kg. Besides, in data set [3], the selectivity ratio amounted to 20. For the same compound, the “Bronchodilator activity, effective / animals tested” value in data set [4] (3.1 μg/kg) is 1/6; in [4] (6.3 μg/kg) it was 3/6; in [4] (12.5 μg/kg) it was 4/6; in data set [4] (25 μg/kg), 4/6; in data set [4] (50 μg/kg), 5/6. The “Bronchodilator activity ED50” value in data set [4] (oral administration (control)) was 7.0 µg/kg. The “effective amount (ED50) oral relative to intravenous injection” value in [5] was “about 2400 times”. The “absorption through the intestine” value in data set [6] was “unexpectedly absorbed through the intestine”. In addition, the antitussive effect result in data set [6] is listed as “exhibits an antitussive effect”. Besides, in data set [6], the diarrhea entry was “does not cause diarrhea”. In addition, the “stability of the medicament” value in [7] is recorded as “difficult to maintain the stability”. In addition, in data set [8], the “antiasthmatic effect by aerosol administration (in words)” value is “excellent antiasthmatic effect”. Also, the “antiasthmatic effect by oral administration (in words)” value in data set [9] is “excellent antiasthmatic effect”.

For `COCCCCC[C@H](O)/C=C/[C@H]1[C@H](O)CC(=O)[C@@H]1C/C=C\CCCC(=O)O` [20-methoxy-PGE2, 11α,15(S)-dihydroxy-20-methoxy-9-oxo-5(cis)-13(trans)Prostadienoic acid], in [1], the “Antiasthmatic effect, Aerosol ED50” value came out at 0.15 µg/mL. In data set [2], the ED50 is more than 0.8 mg/kg. Besides, in data set [9], the “antiasthmatic effect by oral administration (in words)” value is on record as “does not show antiasthmatic effect”.

Consider `CCCCC[C@H](O)/C=C/[C@H]1[C@H](O)CC(=O)[C@@H]1C/C=C\CCCC(=O)O` [Prostaglandin E2], for which the “Antiasthmatic effect, Aerosol ED50” value in data set [1] stood at 0.15 µg/mL. Besides, the ED50 in data set [2] and in [10] was more than 0.8 mg/kg in each case.
